In PubChem BioAssay (NCI):
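Results reflect a 48-hour exposure of cells in 96-well plates to compound at five concentrations. Definition used: TGI = concentration required for complete inhibition of growth.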

Tests used:
Experiment in all cases: DTP human tumour cell line panel, 48 h
OVCAR-4 ovarian = tested on: OVCAR-4 ovarian
LOX IMVI melanoma = tested on: LOX IMVI melanoma
OVCAR-8 ovarian = tested on: OVCAR-8 ovarian
SN12C renal = tested on: SN12C renal
CAKI-1 renal = tested on: CAKI-1 renal
HS 578T breast = tested on: HS 578T breast
NCI-H522 lung = tested on: NCI-H522 lung
SW-620 colon = tested on: SW-620 colon
BT-549 breast = tested on: BT-549 breast
ACHN renal = tested on: ACHN renal
NCI/ADR-RES ovarian = tested on: NCI/ADR-RES ovarian
HT29 colon = tested on: HT29 colon
IGROV1 ovarian = tested on: IGROV1 ovarian
HOP-92 NSCLC = tested on: HOP-92 NSCLC
HCC-2998 colon = tested on: HCC-2998 colon
MCF7 breast = tested on: MCF7 breast
KM12 colon = tested on: KM12 colon
A549 NSCLC = tested on: A549 NSCLC
T-47D breast = tested on: T-47D breast
NCI-H460 lung = tested on: NCI-H460 lung
NCI-H23 lung = tested on: NCI-H23 lung
SNB-19 CNS = tested on: SNB-19 CNS
UACC-62 melanoma = tested on: UACC-62 melanoma
MDA-N = tested on: MDA-N
U251 CNS = tested on: U251 CNS
MDA-MB-435 = tested on: MDA-MB-435
M14 melanoma = tested on: M14 melanoma
OVCAR-5 ovarian = tested on: OVCAR-5 ovarian
OVCAR-3 ovarian = tested on: OVCAR-3 ovarian
A498 renal = tested on: A498 renal
SK-OV-3 ovarian = tested on: SK-OV-3 ovarian
SNB-75 CNS = tested on: SNB-75 CNS
MOLT-4 leukemia = tested on: MOLT-4 leukemia
TK-10 renal = tested on: TK-10 renal
UO-31 renal = tested on: UO-31 renal
HOP-62 NSCLC = tested on: HOP-62 NSCLC
DU-145 prostate = tested on: DU-145 prostate
786-0 renal = tested on: 786-0 renal
K-562 leukemia = tested on: K-562 leukemia
HCT-116 colon = tested on: HCT-116 colon
UACC-257 melanoma = tested on: UACC-257 melanoma
SF-539 CNS = tested on: SF-539 CNS
SK-MEL-5 melanoma = tested on: SK-MEL-5 melanoma
HCT-15 colon = tested on: HCT-15 colon
SF-295 CNS = tested on: SF-295 CNS
PC-3 prostate = tested on: PC-3 prostate
SK-MEL-2 melanoma = tested on: SK-MEL-2 melanoma
MDA-MB-231 breast = tested on: MDA-MB-231 breast
RPMI-8226 leukemia = tested on: RPMI-8226 leukemia
MALME-3M melanoma = tested on: MALME-3M melanoma
HL-60(TB) leukemia = tested on: HL-60(TB) leukemia
CCRF-CEM leukemia = tested on: CCRF-CEM leukemia
COLO 205 colon = tested on: COLO 205 colon
EKVX NSCLC = tested on: EKVX NSCLC
SF-268 CNS = tested on: SF-268 CNS
RXF 393 renal = tested on: RXF 393 renal
NCI-H226 lung = tested on: NCI-H226 lung
SK-MEL-28 melanoma = tested on: SK-MEL-28 melanoma

Measured: TGI

CCCCCCCCCCCCC(O)C(=O)O (configuration not stated)
not listed: EKVX NSCLC | SF-268 CNS | RXF 393 renal | NCI-H226 lung | SK-MEL-28 melanoma
> 100 µM: all other assays above

C=CCNC(=O)CN(CC(=O)OC)C1CCCCC1N(CC(=O)OC)CC(=O)OC (configuration not stated)
not listed: OVCAR-4 ovarian | SNB-75 CNS | 786-0 renal | COLO 205 colon
> 100 µM: all other assays above
